Laboratory results as given in PMC9944328 (Nature Communications, 2023).
Read-outs that look alike come from different tables or passages of the source.

System: SSTR2 mutants
Experiment: NanoBiT β-arrestin 1 recruitment assay, HEK293 (SSTR2 mutants);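 as to Best-fit Bottom: percent of maximal wild-type SSTR2 response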;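 as to Best-fit Span: percent of maximal wild-type SSTR2 response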;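 as to Best-fit Top: percent of maximal wild-type SSTR2 response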;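 as to Bottom (best-fit): percent of maximal wild-type response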;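 as to Emax: percent of the maximal wild-type SSTR2 response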;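 as to Span (best-fit value): percent of maximal wild-type response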;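 as to Span (best-fit): percent of maximal wild-type response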;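 as to Top (best-fit value): percent of maximal wild-type response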;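 as to Top (best-fit): percent of maximal wild-type response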
Assay type: cell-based, human
Details: for Fold of WT: β-arrestin recruitment EC50
Procedure: The NanoBiT β-arrestin 1 recruitment assays were carried out according to the method described previously. […] Human full-length SSTR wild-type and mutant vectors were C-terminally fused with a 15-amino acid flexible linker and the small fragment (SmBiT). HEK293 cells were seeded into six-well microplates at a density of 1.0 × 10^6 cells/well and cultured for 24 h at 37 °C with 5% CO2. After that, cells were co-transfected with pcDNA3.1+ vectors encoding SSTR wild-type or mutants and human β-arrestin 1. After transfecting for 24 h, the transfected cells were suspended and seeded into white 96-well plates, and then cultured at 37 °C overnight. After that the medium in each well was exchanged for 90 μl of 0.01% bovine serum albumin containing 20 μl of 50 μM coelenterazine h (Carbosynth) diluted in the HBSS assay buffer and incubated for 40 min at room temperature. Then, ligands diluted in the assay buffer was added to each well and the luminescence intensity was measured using the Synergy H1 microplate reader and detected at room temperature in a time period. All data presented are means of at least three independent experiments.

[1] = β-arrestin recruitment, SSTR2 F127(3.37)A, n=3
[2] = β-arrestin recruitment, SSTR2 F294(7.35)A, n=3, ND = not detected
[3] = β-arrestin recruitment, SSTR2 I284ECL3A, n=3
[4] = β-arrestin recruitment, SSTR2 K291(7.32)A, n=3, ND = not detected
[5] = β-arrestin recruitment, SSTR2 N276(6.55)A, n=3, ND = not detected
[6] = β-arrestin recruitment, SSTR2 W269(6.48)A, n=3
[7] = β-arrestin recruitment, SSTR2 Y50(1.39)A, n=3
[8] = β-arrestin recruitment, SSTR2 Y205(5.35)A, n=3
[9] = β-arrestin recruitment, SSTR2 Y302(7.43)A, n=3

## N#Cc1cccc(-c2ccc3ncc(-c4cc(F)cc(F)c4)c(N4CCC(N)CC4)c3c2)c1O [paltusotine]
F127A-1
  Bottom (best-fit): -1.415
  LogEC50 (best-fit): -6.677
  Span (best-fit): 63.7
  Top (best-fit): 62.28
F127A-2
  Bottom (best-fit): -1.034
  LogEC50 (best-fit): -6.706
  Span (best-fit): 59.48
  Top (best-fit): 58.45
F127A-3
  Bottom (best-fit): -1.184
  LogEC50 (best-fit): -6.817
  Span (best-fit): 69.08
  Top (best-fit): 67.89
F294(7.35)A
  β-arrestin recruitment of mutant: slightly influenced the β-arrestin pathway
I284ECL3A, K291(7.32)A and N276(6.55)A
  β-arrestin recruitment of mutants: slightly enhanced recruitment of β-arrestin
SSTR2 I284A, run 1
  Best-fit Bottom: -1.437
  Best-fit LogEC50: -6.742
  Best-fit Span: 206.6
  Best-fit Top: 205.2
SSTR2 I284A, run 2
  Best-fit Bottom: -1.082
  Best-fit LogEC50: -6.742
  Best-fit Span: 155.6
  Best-fit Top: 154.5
SSTR2 I284A, run 3
  Best-fit Bottom: -1.233
  Best-fit LogEC50: -6.745
  Best-fit Span: 219.6
  Best-fit Top: 218.3
SSTR2 W269A, run W269A-1
  Bottom (best-fit value): -0.1166
  LogEC50 (best-fit value): -6.523
  Span (best-fit value): 23.55
  Top (best-fit value): 23.43
SSTR2 W269A, run W269A-2
  Bottom (best-fit value): -0.1813
  LogEC50 (best-fit value): -6.214
  Span (best-fit value): 28.45
  Top (best-fit value): 28.27
SSTR2 W269A, run W269A-3
  Bottom (best-fit value): 0.3375
  LogEC50 (best-fit value): -6.325
  Span (best-fit value): 20.32
  Top (best-fit value): 20.66
SSTR2 Y50A, run 1
  Best-fit Bottom: -1.913
  Best-fit LogEC50: -7.128
  Best-fit Span: 70.62
  Best-fit Top: 68.71
SSTR2 Y50A, run 2
  Best-fit Bottom: -2.472
  Best-fit LogEC50: -7.187
  Best-fit Span: 103.4
  Best-fit Top: 100.9
SSTR2 Y50A, run 3
  Best-fit Bottom: -2.529
  Best-fit LogEC50: -7.176
  Best-fit Span: 105.2
  Best-fit Top: 102.6
SSTR2 Y205A, run Y205A-1
  Bottom (best-fit value): -3.142
  LogEC50 (best-fit value): -6.819
  Span (best-fit value): 125.5
  Top (best-fit value): 122.3
SSTR2 Y205A, run Y205A-2
  Bottom (best-fit value): -4.259
  LogEC50 (best-fit value): -6.824
  Span (best-fit value): 138.9
  Top (best-fit value): 134.6
SSTR2 Y205A, run Y205A-3
  Bottom (best-fit value): -4.015
  LogEC50 (best-fit value): -6.671
  Span (best-fit value): 203.2
  Top (best-fit value): 199.2
V103(2.64)A
  β-arrestin signal of mutant: markedly reduced the paltusotine-induced β-arrestin signal
best-fit, D295A-1
  Bottom (β-arrestin1 recruitment): 0.727
  LogEC50 (β-arrestin1 recruitment): -5.635
  Span (β-arrestin1 recruitment): 100
  Top (β-arrestin1 recruitment): 100.7
best-fit, D295A-2
  Bottom (β-arrestin1 recruitment): 1.431
  LogEC50 (β-arrestin1 recruitment): -5.595
  Span (β-arrestin1 recruitment): 100.8
  Top (β-arrestin1 recruitment): 102.3
best-fit, D295A-3
  Bottom (β-arrestin1 recruitment): 0.3814
  LogEC50 (β-arrestin1 recruitment): -5.706
  Span (β-arrestin1 recruitment): 93.14
  Top (β-arrestin1 recruitment): 93.53
best-fit, F294A-1
  Bottom (β-arrestin1 recruitment): -2.632
  LogEC50 (β-arrestin1 recruitment): -5.979
  Span (β-arrestin1 recruitment): 125.8
  Top (β-arrestin1 recruitment): 123.2
best-fit, F294A-2
  Bottom (β-arrestin1 recruitment): -1.982
  LogEC50 (β-arrestin1 recruitment): -5.979
  Span (β-arrestin1 recruitment): 94.75
  Top (β-arrestin1 recruitment): 92.77
best-fit, F294A-3
  Bottom (β-arrestin1 recruitment): -2.454
  LogEC50 (β-arrestin1 recruitment): -6.059
  Span (β-arrestin1 recruitment): 130.8
  Top (β-arrestin1 recruitment): 128.3
best-fit, K291A-1
  Bottom (β-arrestin1 recruitment): -2.723
  LogEC50 (β-arrestin1 recruitment): -7.098
  Span (β-arrestin1 recruitment): 158
  Top (β-arrestin1 recruitment): 155.2
best-fit, K291A-2
  Bottom (β-arrestin1 recruitment): -3.352
  LogEC50 (β-arrestin1 recruitment): -7.045
  Span (β-arrestin1 recruitment): 143.2
  Top (β-arrestin1 recruitment): 139.9
best-fit, K291A-3
  Bottom (β-arrestin1 recruitment): -4.699
  LogEC50 (β-arrestin1 recruitment): -6.141
  Span (β-arrestin1 recruitment): 138.3
  Top (β-arrestin1 recruitment): 133.6
best-fit, N276A-1
  Bottom (β-arrestin1 recruitment): -2.311
  LogEC50 (β-arrestin1 recruitment): -7.135
  Span (β-arrestin1 recruitment): 170
  Top (β-arrestin1 recruitment): 167.7
best-fit, N276A-2
  Bottom (β-arrestin1 recruitment): -1.74
  LogEC50 (β-arrestin1 recruitment): -7.135
  Span (β-arrestin1 recruitment): 128
  Top (β-arrestin1 recruitment): 126.3
best-fit, N276A-3
  Bottom (β-arrestin1 recruitment): -2.993
  LogEC50 (β-arrestin1 recruitment): -7.215
  Span (β-arrestin1 recruitment): 180.6
  Top (β-arrestin1 recruitment): 177.6
best-fit, Y302A-1
  Bottom (β-arrestin1 recruitment): 0.04519
  LogEC50 (β-arrestin1 recruitment): -6.65
  Span (β-arrestin1 recruitment): 206.8
  Top (β-arrestin1 recruitment): 206.8
best-fit, Y302A-2
  Bottom (β-arrestin1 recruitment): -0.03402
  LogEC50 (β-arrestin1 recruitment): -6.645
  Span (β-arrestin1 recruitment): 207.2
  Top (β-arrestin1 recruitment): 207.2
best-fit, Y302A-3
  Bottom (β-arrestin1 recruitment): -0.02562
  LogEC50 (β-arrestin1 recruitment): -6.645
  Span (β-arrestin1 recruitment): 156
  Top (β-arrestin1 recruitment): 156
read-out: Best-fit EC50, SSTR2 I284A, run 1
  EC50: 181 nM
read-out: Best-fit EC50, SSTR2 I284A, run 3
  EC50: 180 nM
read-out: Best-fit EC50, SSTR2 Y50A, run 1
  EC50: 74.4 nM
read-out: Best-fit EC50, SSTR2 Y50A, run 2
  EC50: 65 nM
read-out: Best-fit EC50, SSTR2 Y50A, run 3
  EC50: 66.7 nM
read-out: EC50 (best-fit value), SSTR2 W269A, run W269A-1
  EC50: 300 nM
read-out: EC50 (best-fit value), SSTR2 W269A, run W269A-2
  EC50: 610 nM
read-out: EC50 (best-fit value), SSTR2 W269A, run W269A-3
  EC50: 474 nM
read-out: EC50 (best-fit value), SSTR2 Y205A, run Y205A-2
  EC50: 150 nM
read-out: EC50 (best-fit value), SSTR2 Y205A, run Y205A-3
  EC50: 213 nM
read-out: EC50 (best-fit), F127A-1
  EC50: 210 nM
read-out: EC50 (best-fit), F127A-2
  EC50: 197 nM
read-out: EC50 (best-fit), F127A-3
  EC50: 152 nM
read-out: EC50 (β-arrestin1 recruitment), best-fit, D295A-1
  EC50: 2320 nM
read-out: EC50 (β-arrestin1 recruitment), best-fit, D295A-2
  EC50: 2540 nM
read-out: EC50 (β-arrestin1 recruitment), best-fit, D295A-3
  EC50: 1970 nM
read-out: EC50 (β-arrestin1 recruitment), best-fit, F294A-1
  EC50: 1050 nM
read-out: EC50 (β-arrestin1 recruitment), best-fit, F294A-3
  EC50: 872 nM
read-out: EC50 (β-arrestin1 recruitment), best-fit, K291A-1
  EC50: 79.7 nM
read-out: EC50 (β-arrestin1 recruitment), best-fit, K291A-2
  EC50: 90.2 nM
read-out: EC50 (β-arrestin1 recruitment), best-fit, N276A-1
  EC50: 73.2 nM
read-out: EC50 (β-arrestin1 recruitment), best-fit, N276A-3
  EC50: 61 nM
read-out: EC50 (β-arrestin1 recruitment), best-fit, Y302A-1
  EC50: 224 nM
read-out: EC50 (β-arrestin1 recruitment), best-fit, Y302A-2
  EC50: 226 nM
SSTR2 D295(7.36)A
  Fold of WT: 1.22
SSTR2 F127(3.37)A
  Fold of WT: 0.49
SSTR2 F294(7.35)A
  Fold of WT: 2.44
SSTR2 I284ECL3A
  Fold of WT: 0.45
SSTR2 K291(7.32)A
  Fold of WT: 0.21
SSTR2 N276(6.55)A
  Fold of WT: 0.17
SSTR2 W269(6.48)A
  Fold of WT: 2.65
SSTR2 Y50(1.39)A
  Fold of WT: 0.17
SSTR2 Y205(5.35)A
  Fold of WT: 0.42
SSTR2 Y302(7.43)A
  Fold of WT: 0.56
β-arrestin recruitment, SSTR2 D295(7.36)A, detected at 10 μM, n=3
  Emax: 87.12±2.30 %WT
β-arrestin recruitment, SSTR2 D295(7.36)A, n=3
  EC50: 495.7 ± 1.76 nM
[1]
  EC50: 198 ± 6.66 nM
  Emax: 60.24±1.11 %WT
β-arrestin recruitment, SSTR2 F208(5.38)A, detected at 10 μM, n=3
  Emax: 70.89±2.39 %WT
β-arrestin recruitment, SSTR2 F265(6.44)A, detected at 10 μM, n=3 octreotide, 4 paltusotine
  Emax: 49.61±1.04 %WT
[2]
  EC50: 990.7 ± 5.93 nM
  Emax: 114.80±11.09 %WT
β-arrestin recruitment, SSTR2 I130(3.40)A, detected at 10 μM, n=3
  Emax: 30.45±0.36 %WT
[3]
  EC50: 181 ± 3.33 nM
  Emax: 192.70±19.45 %WT
[4]
  EC50: 86.7 ± 3.5 nM
  Emax: 133.50±14.76 %WT
β-arrestin recruitment, SSTR2 L99(2.60)A, detected at 10 μM, n=3
  Emax: 84.26±3.71 %WT
[5]
  EC50: 69.1 ± 4.07 nM
  Emax: 157.20±15.71 %WT
β-arrestin recruitment, SSTR2 P220(5.50)A, detected at 10 μM, n=4
  Emax: 50.55±2.81 %WT
β-arrestin recruitment, SSTR2 Q102(2.63)A, detected at 10 μM, n=3
  Emax: 26.07±1.00 %WT
β-arrestin recruitment, SSTR2 Q126(3.36)A, detected at 10 μM, n=3
  Emax: 65.37±3.31 %WT
β-arrestin recruitment, SSTR2 T194(45.51)A, n=3
  Emax: 95.9±9.02 %WT
[6]
  EC50: 1077 ± 6.28 nM
  Emax: 50.80±24.99 %WT
[7]
  EC50: 68.7 ± 2.87 nM
  Emax: 90.74±11.02 %WT
[8]
  EC50: 172 ± 2.07 nM
  Emax: 152.00±23.85 %WT
[9]
  EC50: 225 ± 6.67 nM
  Emax: 190.00±17.00 %WT
